We go through one compound from paper PMC10743429, “Anti-Inflammatory Effects of Alphitolic Acid Isolated from Agrimonia coreana Nakai Extracts Are Mediated via the Inhibition of ICRAC Activity in T Cells” (International Journal of Molecular Sciences, 2023).

For orientation: IC50 means the concentration at which inhibition is half-maximal.

The target of the test is T1, ORAI1 (Homo sapiens, UniProt Q96D31).
T1 construct: ORAI1 transiently co-transfected with STIM1 in HEK293T cells; with STIM1
Briefly: patch-clamp of ICRAC in HEK293T cells co-expressing ORAI1 and STIM1. Type of test: cell-based. In general terms: Patch clamp records ionic current or voltage across a cell membrane.

T1 sequence (Q96D31 whole entry): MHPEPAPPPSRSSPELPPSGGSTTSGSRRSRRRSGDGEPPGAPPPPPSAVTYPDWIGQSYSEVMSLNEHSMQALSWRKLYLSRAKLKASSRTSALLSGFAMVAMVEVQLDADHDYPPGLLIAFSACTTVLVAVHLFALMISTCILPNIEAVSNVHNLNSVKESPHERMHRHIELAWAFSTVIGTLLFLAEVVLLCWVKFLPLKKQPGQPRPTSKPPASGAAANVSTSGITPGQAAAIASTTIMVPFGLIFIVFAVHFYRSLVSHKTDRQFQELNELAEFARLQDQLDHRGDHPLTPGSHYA
T1 sequence (Q13586 23-685 partner): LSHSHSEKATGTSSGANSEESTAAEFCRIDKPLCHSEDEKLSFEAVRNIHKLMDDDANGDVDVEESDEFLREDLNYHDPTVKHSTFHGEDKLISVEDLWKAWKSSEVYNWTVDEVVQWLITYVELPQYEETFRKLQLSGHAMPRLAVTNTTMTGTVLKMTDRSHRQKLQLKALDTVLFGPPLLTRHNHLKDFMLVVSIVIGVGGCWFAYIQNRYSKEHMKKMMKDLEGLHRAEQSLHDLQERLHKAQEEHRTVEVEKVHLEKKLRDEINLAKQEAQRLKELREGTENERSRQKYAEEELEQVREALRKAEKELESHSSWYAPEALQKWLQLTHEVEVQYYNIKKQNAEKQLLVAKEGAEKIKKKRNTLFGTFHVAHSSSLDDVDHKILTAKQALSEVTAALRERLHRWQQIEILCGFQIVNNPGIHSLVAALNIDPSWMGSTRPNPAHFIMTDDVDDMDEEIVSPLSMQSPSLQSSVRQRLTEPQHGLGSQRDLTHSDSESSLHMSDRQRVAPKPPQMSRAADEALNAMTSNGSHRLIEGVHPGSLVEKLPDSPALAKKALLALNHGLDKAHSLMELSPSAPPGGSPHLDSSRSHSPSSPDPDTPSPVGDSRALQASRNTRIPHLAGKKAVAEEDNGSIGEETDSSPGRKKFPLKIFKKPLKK

`C=C(C)[C@@H]1CC[C@]2(C(=O)O)CC[C@]3(C)[C@H](CC[C@@H]4[C@@]5(C)C[C@@H](O)[C@H](O)C(C)(C)[C@@H]5CC[C@]43C)[C@@H]12` [compound 1, alphitolic acid] showed an IC50 of 17.5 ± 2.46 µM.
